Test results published in US10030016B2 (Sunesis Pharmaceuticals, Inc., priority 2009, dated 2018).
Where two headings read alike, the source gives them in different places.

What was measured:
[1] = tested on: phospho-akt (Thr308) in PC-3 cells; test: Inhibition of phospho-akt (Thr308) in PC-3 cells, MSD phospho-akt 308 ELISA kit; type: cell-based; conditions: Homo sapiens, inhibition of P308 Akt in PC-3 cells, 2 hours, no serum, MSD, read-out: EC50
Summary of the method: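 Electrochemiluminescent MSD ELISA of Thr308-phosphorylated Akt after a 2 h serum-free compound exposure of PC-3 cells (15,000/well, plated overnight). Controls: DMSO (high), 5 μM wortmannin (low). Lysate binding overnight at 4 °C; detection antibody 1 h at room temperature.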

PDK1 = PDK1 (Homo sapiens (Human), UniProt O15530); test: PDK1 kinase assay (coupled PDK1/AKT/FAM-crosstide assay, IMAP fluorescence polarization); type: biochemical; conditions: inhibition of phospo-PDK1 in vitro
Sequence of PDK1 (O15530 51-359): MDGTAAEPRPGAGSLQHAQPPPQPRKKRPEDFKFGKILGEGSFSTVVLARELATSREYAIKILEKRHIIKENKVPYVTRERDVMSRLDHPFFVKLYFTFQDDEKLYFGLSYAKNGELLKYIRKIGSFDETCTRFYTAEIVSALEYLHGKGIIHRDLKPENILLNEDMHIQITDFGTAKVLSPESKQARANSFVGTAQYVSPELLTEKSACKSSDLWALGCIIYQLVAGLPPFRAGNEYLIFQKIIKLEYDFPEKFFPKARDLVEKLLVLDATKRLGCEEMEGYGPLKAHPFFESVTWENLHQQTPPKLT
Summary of the method: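 GST-tagged human PDK1 (aa 51-359, 0.75 nM) from insect cells activated unphosphorylated GST-AKT2 (aa 140-467–PIFtide fusion, 10 nM), which phosphorylated 100 nM FAM-crosstide; 40 μM ATP, pH 7.2 Tris/MgCl2, 30 min at 25° C. IMAP fluorescence polarization read-out; ΔmP versus compound concentration fitted with a 4-parameter curve.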

SMILES	EC50 ([1]; PC-3, 2 h)	IC50 (PDK1)	EC50 [1]
O=C(NCc1ccc(C(F)(F)F)cc1)c1cccnc1NCc1ccc(-c2c[nH]c3ncccc23)s1 [Example 1.18]	–	1000 to 5000 nM	> 10000 nM
C[C@H](NC(=O)c1cccnc1NCc1ccc(-c2ccc3ncnn3c2)s1)c1ccc(F)cc1 [Example 2.4, N-[(1S)-1-(4-fluorophenyl)ethyl]-2-({[5-([1,2,4]triazolo[1,5-a]pyridin-6-yl)thiophen-2-yl]methyl}amino)pyridine-3-carboxamide]	–	1000 to 5000 nM	> 10000 nM
C[C@H](NC(=O)c1cccnc1NCc1ccc(-c2ccn3ncnc3c2)s1)c1ccc(F)cc1 [Example 2.5, N-[(1S)-1-(4-fluorophenyl)ethyl]-2-({[5-([1,2,4]triazolo[1,5-a]pyridin-7-yl)thiophen-2-yl)methyl}amino)pyridine-3-carboxamide]	> 10000 nM	1000 to 5000 nM	–
C[C@H](NC(=O)c1cccnc1NCc1ccc(-c2ccc3nccn3c2)s1)c1ccc(F)cc1 [Example 2.7, (S)-N-(1-(4-fluorophenyl)ethyl)-2-(((5-(imidazo[1,2-a]pyridin-6-yl)thiophen-2-yl)methyl)amino)nicotinamide]	–	1000 to 5000 nM	> 10000 nM
C[C@H](NC(=O)c1cccnc1NCc1ccc(-c2cn3ccnc3cn2)s1)c1ccc(F)cc1 [Example 2.8, (S)-N-(1-(4-fluorophenyl)ethyl)-2-(((5-(imidazo[1,2-a]pyrazin-6-yl)thiophen-2-yl)methyl)amino)nicotinamide]	–	1000 to 5000 nM	> 10000 nM
C[C@H](NC(=O)c1cccnc1NCc1ccc(-c2c[nH]c(=O)c3ccccc23)s1)c1ccc(F)cc1 [Example 2.9, (S)-N-(1-(4-fluorophenyl)ethyl)-2-(((5-(1-oxo-1,2-dihydroiso-quinolin-4-yl)thiophen-2-yl)methyl)amino)nicotinamide]	1000 to 10000 nM	1000 to 5000 nM	–
C[C@H](NC(=O)c1cccnc1NCc1ccc(-c2cn(C)c(=O)c3ccccc23)s1)c1ccc(F)cc1 [Example 2.10, (S)-N-(1-(4-fluorophenyl)ethyl)-2-(((5-(2-methyl-1-oxo-1,2-di-hydroisoquinolin-4-yl)thiophen-2-yl)methyl)amino)nicotinamide]	–	> 5000 nM	> 10000 nM
COc1cc2ncnc(-c3ccc(CNc4ncccc4C(=O)N[C@@H](C)c4ccc(F)cc4)s3)c2cc1OC [Example 2.12, (S)-2-(((5-(6,7-dimethoxyquinazolin-4-yl)thiophen-2-yl)methyl)amino)-N-(1-(4-fluorophenyl)ethyl) nicotinamide]	–	> 5000 nM	1000 to 10000 nM
C[C@H](NC(=O)c1cccnc1NCc1ccc(-c2ccc3ncnc(NCCN)c3c2)s1)c1ccc(F)cc1 [Example 2.15, (S)-2-(((5-(4-(2-aminoethylamino)quinazolin-6-yl)thiophen-2-yl)methyl)amino)-N-(1-(4-fluorophenyl)ethyl)nicotinamide]	–	100 to 1000 nM	1000 to 10000 nM
C[C@H](NC(=O)c1cccnc1NCc1ccc(-c2ccc3ncc4c(c3c2)n(C)c(=O)n4C)s1)c1ccc(F)cc1 [Example 2.17, (S)-2-(((5-(1,3-dimethyl-2-oxo-2,3-dihydro-1H-imidazo(4,5-c]quinolin-8-yl)thiophen-2-yl)methyl)amino)-N-(1-(4-fluoro-phenyl)ethyl)nicotinamide]	–	> 5000 nM	> 10000 nM
Cc1nc2cnc3ccc(-c4ccc(CNc5ncccc5C(=O)N[C@@H](C)c5ccc(F)cc5)s4)cc3c2n1C [Example 2.19, (S)-2-(((5-(1,2-dimethyl-1H-imidazo[4,5-c]quinolin-8-yl)thiophen-2-yl)methyl)amino) N-(1-(4-fluorophenyl)ethyl) nicotinamide]	–	100 to 1000 nM	< 1000 nM

Further lines, results first:

EC50 ([1]; PC-3, 2 h)	IC50 (PDK1)	EC50 [1]	SMILES
> 10000 nM	100 to 1000 nM	–	O=C(NCc1ccc(F)c(F)c1)c1cccnc1NCc1ccc(-c2c[nH]c3ncccc23)s1 [Example 1.17, 2-(((5-(1H-pyrrolo[2,3-b]pyridin-3-yl)thiophen-2-yl)methyl)amino)-N-(3,4-difluorobenzyl)nicotinamide]
–	1000 to 5000 nM	1000 to 10000 nM	O=C(NCC1CCCC1)c1cccnc1NCc1ccc(-c2c[nH]c3ncccc23)s1 [Example 1.19, 2-(((5-(1H-pyrrolo[2,3-b]pyridin-3-yl)thiophen-2-yl)methyl)amino)-N-4-(cyclopentylmethyl) nicotinamide]
–	< 100 nM	1000 to 10000 nM	O=C(NCc1ccc(F)c(F)c1)c1ccccc1NCc1cccc(-c2c[nH]c3ncccc23)c1 [Example 1.20, 2-(3-(1H-pyrrolo[2,3-b]pyridin-3-yl)benzylamino)-N-(3,4-difluorobenzyl)benzamide]
1000 to 10000 nM	100 to 1000 nM	–	C[C@H](NC(=O)c1cccnc1NCc1ccc(-c2cc3c(N)ncnc3cn2)s1)c1ccc(F)cc1 [Example 2.13.1, (S)-2-(((5-(4-aminopyrido[3,4-d]pyrimidin-6-yl)thiophen-2-yl)methyl)amino)-N-(1-(4-fluoro-phenyl)ethyl)nicotinamide]
–	> 5000 nM	> 10000 nM	C[C@H](NC(=O)c1cccnc1NCc1ccc(-c2ccc3ncc4[nH]c(=O)n(C)c4c3c2)s1)c1ccc(F)cc1 [Example 2.16, (S)-N-(1-(4-fluorophenyl)ethyl)-2-(((5-(1-methyl-2-oxo-2,3-dihydro-1H-imidazo[4,5-c]quinolin-8-yl)thiophen-2-yl)methyl)amino) nicotinamide]
–	100 to 1000 nM	< 1000 nM	C[C@H](NC(=O)c1cccnc1NCc1ccc(-c2ccc3ncc4ncn(C)c4c3c2)s1)c1ccc(F)cc1 [Example 2.18]
–	100 to 1000 nM	< 1000 nM	C[C@H](NC(=O)c1cccnc1NCc1ccc(-c2c[nH]c3ncnc(N)c23)s1)c1ccc(F)cc1 [Example 2.20, (S)-2-(((5-(4-amino-7H-pyrrolo[2,3-d]pyrimidin-5-yl)thiophen-2-yl)methyl)amino)-N-(1-(4-fluorophenyl)ethyl)nicotinamide]
–	1000 to 5000 nM	> 10000 nM	C[C@H](NC(=O)c1cccnc1NCc1ccc(-c2ccc3nc(N)[nH]c3c2)s1)c1ccc(F)cc1 [Example 2.21, (S)-2-(((5-(2-amino-1H-benzo[d]imidazol-6-yl)thiophen-2-yl)methyl)amino)-N-(1-(4-fluorophenyl)ethyl)nicotinamide]
–	1000 to 5000 nM	> 10000 nM	C[C@H](NC(=O)c1cccnc1NCc1ccc(-c2cc3c(cn2)nc(N)n3C)s1)c1ccc(F)cc1 [Example 2.23, (S)-2-(((5-(2-amino-1-methyl-1H-imidazo[4,5-c]pyridin-6-yl)thiophen-2-yl)methyl)amino)-N-(1-(4-fluorophenyl)ethyl) nicotinamide]
–	< 100 nM	< 1000 nM	Cn1cnc2cnc3ccc(-c4ccc(CNc5ncccc5C(=O)NCc5ccc(F)c(F)c5)s4)cc3c21 [Example 2.24]
–	< 100 nM	< 1000 nM	C[C@H](NC(=O)c1cccnc1NCc1ccc(-c2ccc3ncc4ncn(C)c4c3c2)s1)c1ccc(F)c(F)c1 [Example 2.25, (S)-N-(1-(3,4-difluorophenyl)ethyl)-2-(((5-(1-methyl-1H-imidazo[4,5-c]quinolin-8-yl)thiophen-2-yl)methyl)amino)nicotinamide]
–	< 100 nM	< 1000 nM	Cn1cnc2cnc3ccc(-c4ccc(CNc5ncc(C(F)(F)F)cc5C(=O)NCc5ccc(F)c(F)c5)s4)cc3c21 [Example 2.26, N-(3,4-difluorobenzyl)-2-(((5-(1-methyl-1H-imidazo[4,5-c]quinolin-8-yl)thiophen-2-yl)methyl)amino)-5-(trifluoromethyl)nicotinamide]
